Tests used:
Assay in all cases: whole plant or invertebrate
Type in all cases: in vivo
[1] = test system: Frankliniella occidentalis (Western Flower Thrips); details: foliar, 168 h, application rate of 200 ppm, sunflower leaf discs, population of mixed ages, 7 days after infestation
Protocol: Sunflower leaf discs were placed on agar in 24-well microtiter plates and sprayed with aqueous test solutions prepared from 10,000 DMSO stock solutions. After drying the leaf discs were infested with a Frankliniella population of mixed ages. The samples were assessed for mortality 7 days after infestation.

[2] = test system: Spodoptera littoralis (Egyptian Cotton Leaf Worm); details: 144 h, test rate of 12.5 ppm, lettuce grown on treated agar, 6 days after infestation, read-out: effect in at least one of the three categories (mortality, anti-feeding, or growth inhibition)
Excerpt: Test compounds were applied by pipette from 10,000 ppm DMSO stock solutions into 24-well plates and mixed with agar. Lettuce seeds were placed onto the agar and the multi well plate was closed by another plate which contained also agar. After 7 days the compound was absorbed by the roots and the lettuce grew into the lid plate. The lettuce leaves were then cut off into the lid plate. Spodoptera eggs were pipetted through a plastic stencil onto a humid gel blotting paper and the lid plate was closed with it. The samples were assessed for mortality, anti-feedant effect and growth inhibition in comparison to untreated samples 6 days after infestation.

[3] = test system: Thrips tabaci (Onion Thrips); details: foliar, 144 h, application rate of 200 ppm, sunflower leaf discs, population of mixed ages, 6 days after infestation
Protocol: Sunflower leaf discs were placed on agar in 24-well microtiter plates and sprayed with aqueous test solutions prepared from 10,000 ppm DMSO stock solutions. After drying the leaf discs were infested with a thrips population of mixed ages. The samples were assessed for mortality 6 days after infestation.

[4] = test system: Euschistus heros (Neotropical Brown Stink Bug); details: in Glycine max, 120 h, application rate of 200 ppm, N2 nymphs, 5 days after infestation, read-out: effect in at least one of the two categories (mortality or growth inhibition)
Protocol: Soybean leaves on agar in 24-well microtiter plates were sprayed with aqueous test solutions prepared from 10,000 ppm DMSO stock solutions. After drying the leaves were infested with N2 nymphs. The samples were assessed for mortality and growth inhibition in comparison to untreated samples 5 days after infestation.

[5] = test system: Bemisia tabaci (Cotton White Fly); details: foliar, 144 h, application rate of 200 ppm, cotton leaf discs, adult white flies, 6 days after incubation
Protocol: Cotton leaf discs were placed on agar in 24-well microtiter plates and sprayed with aqueous test solutions prepared from 10,000 ppm DMSO stock solutions. After drying the leaf discs were infested with adult white flies. The samples were checked for mortality 6 days after incubation.

[6] = test system: Spodoptera littoralis (Egyptian Cotton Leaf Worm); details: foliar, 72 h, application rate of 200 ppm, L1 larvae, 3 days after infestation, read-out: control (mortality, anti-feeding effect or growth inhibition)
Protocol: Cotton leaf discs were placed onto agar in 24-well microtiter plates and sprayed with aqueous test solutions prepared from 10,000 ppm DMSO stock solutions. After drying the leaf discs were infested with five L1 larvae. The samples were assessed for mortality, anti-feeding effect, and growth inhibition in comparison to untreated samples 3 days after infestation.

[7] = test system: Myzus persicae (Green Peach Aphid); details: foliar, 144 h, application rate of 200 ppm, sunflower leaf discs, population of mixed ages, 6 days after infestation
Protocol: Sunflower leaf discs were placed onto agar in a 24-well microtiter plate and sprayed with aqueous test solutions prepared from 10,000 ppm DMSO stock solutions. After drying, the leaf discs were infested with an aphid population of mixed ages. The samples were assessed for mortality 6 days after infestation.

[8] = test system: Plutella xylostella (Diamond Back Moth); details: 120 h, application rate of 200 ppm, L2 larvae, 5 days after infestation, read-out: effect in at least one of the two categories (mortality or growth inhibition)
Protocol: 24-well microtiter plates with artificial diet were treated with aqueous test solutions prepared from 10,000 ppm DMSO stock solutions by pipetting. After drying, the plates were infested with L2 larvae (10 to 15 per well). The samples were assessed for mortality and growth inhibition in comparison to untreated samples 5 days after infestation.

[9] = test system: Diabrotica balteata (Corn Root Worm); details: 96 h, application rate of 200 ppm, L2 larvae, 4 days after infestation, read-out: effect in at least one of the two categories (mortality or growth inhibition)
Protocol: Maize sprouts placed onto an agar layer in 24-well microtiter plates were treated with aqueous test solutions prepared from 10,000 ppm DMSO stock solutions by spraying. After drying, the plates were infested with L2 larvae (6 to 10 per well). The samples were assessed for mortality and growth inhibition in comparison to untreated samples 4 days after infestation.

[10] = test system: Myzus persicae (Green Peach Aphid); details: 144 h, test rate of 24 ppm, roots of pea seedlings in test solution, 6 days
Protocol: Roots of pea seedlings infested with an aphid population of mixed ages were placed directly into aqueous test solutions prepared from 10,000 DMSO stock solutions. The samples were assessed for mortality 6 days after placing seedlings into test solutions.

[11] = test system: Tetranychus urticae (Two-Spotted Spider Mite); details: foliar, 192 h, application rate of 200 ppm, bean leaf discs, mixed population (mobile stages), 8 days after infestation
Protocol: Bean leaf discs on agar in 24-well microtiter plates were sprayed with aqueous test solutions prepared from 10,000 ppm DMSO stock solutions. After drying the leaf discs were infested with a mite population of mixed ages. The samples were assessed for mortality on mixed population (mobile stages) 8 days after infestation.

CCS(=O)(=O)c1cc(C(F)(F)F)cnc1-c1nc2cc(C(F)(F)F)n(C3CC3)c(=O)c2n1C [Compound A1, 5-cyclopropyl-2-[3-ethylsulfonyl-5-(trifluoromethyl)-2-pyridyl]-3-methyl-6-(trifluoromethyl) imidazo[4,5-c]pyridin-4-one]
≥ 80%: mortality at 200 ppm [1] | percent effect (mortality, anti-feeding or growth inhibition) at 12.5 ppm [2] | mortality at 200 ppm [3] | percent effect (mortality or growth inhibition) at 200 ppm [4] | mortality at 200 ppm [5] | percent control (mortality, anti-feedant effect or growth inhibition) at 200 ppm [6] | mortality at 200 ppm [7] | percent effect (mortality or growth inhibition) at 200 ppm [8] | percent effect (mortality or growth inhibition) at 200 ppm [9]

CCS(=O)(=O)c1cc(-n2ccc(C(F)(F)F)n2)cnc1-c1nc2cc(C(F)(F)F)n(C3CC3)c(=O)c2n1C [Compound A3, 5-cyclopropyl-2-[3-ethylsulfonyl-5-[3-(trifluoromethyl)pyrazol-1-yl]-2-pyridyl]-3-methyl-6-(trifluoromethyl)imidazo[4,5-c]pyridin-4-one]
≥ 80%: percent effect (mortality or growth inhibition) at 200 ppm [4] | percent control (mortality, anti-feedant effect or growth inhibition) at 200 ppm [6] | percent effect (mortality or growth inhibition) at 200 ppm [8] | percent effect (mortality or growth inhibition) at 200 ppm [9]

CCS(=O)(=O)c1cc(Br)cnc1-c1nc2cc(C(F)(F)F)n(C3CC3)c(=O)c2n1C [Compound A5, 2-(5-bromo-3-ethylsulfonyl-2-pyridyl)-5-cyclopropyl-3-methyl-6-(trifluoromethyl)imidazo[4,5-c]pyridin-4-one]
≥ 80%: percent effect (mortality, anti-feeding or growth inhibition) at 12.5 ppm [2] | mortality at 200 ppm [3] | percent effect (mortality or growth inhibition) at 200 ppm [4] | mortality at 200 ppm [5] | percent control (mortality, anti-feedant effect or growth inhibition) at 200 ppm [6] | mortality at 200 ppm [7] | percent effect (mortality or growth inhibition) at 200 ppm [8] | percent effect (mortality or growth inhibition) at 200 ppm [9]

CCS(=O)(=O)c1cc(-c2cc(F)cc(F)c2)cnc1-c1nc2cc(C(F)(F)F)n(C3CC3)c(=O)c2n1C [Compound A6, 5-cyclopropyl-2-[5-(3,5-difluorophenyl)-3-ethylsulfonyl-2-pyridyl]-3-methyl-6-(trifluoromethyl)imidazo[4,5-c]pyridin-4-one]
≥ 80%: mortality at 200 ppm [1] | percent effect (mortality, anti-feeding or growth inhibition) at 12.5 ppm [2] | mortality at 200 ppm [3] | percent effect (mortality or growth inhibition) at 200 ppm [4] | mortality at 200 ppm [5] | percent control (mortality, anti-feedant effect or growth inhibition) at 200 ppm [6] | mortality at 200 ppm [7] | percent effect (mortality or growth inhibition) at 200 ppm [8] | percent effect (mortality or growth inhibition) at 200 ppm [9]

CCS(=O)(=O)c1cc(-c2cc(C(F)(F)F)ccn2)cnc1-c1nc2cc(C(F)(F)F)n(C3CC3)c(=O)c2n1C [Compound A7, 5-cyclopropyl-2-[3-ethylsulfonyl-5-[4-(trifluoromethyl)-2-pyridyl]-2-pyridyl]-3-methyl-6-(trifluoromethyl)imidazo[4,5-c]pyridin-4-one]
≥ 80%: mortality at 200 ppm [1] | percent effect (mortality or growth inhibition) at 200 ppm [4] | mortality at 200 ppm [5] | percent control (mortality, anti-feedant effect or growth inhibition) at 200 ppm [6] | mortality at 200 ppm [7] | percent effect (mortality or growth inhibition) at 200 ppm [8] | percent effect (mortality or growth inhibition) at 200 ppm [9]

CCS(=O)(=O)c1cc(C2(C#N)CC2)cnc1-c1nc2cc(C(F)(F)F)n(C3CC3)c(=O)c2n1C [Compound A31, 1-[6-[5-cyclopropyl-3-methyl-4-oxo-6-(trifluoromethyl)imidazo[4,5-c]pyridin-2-yl]-5-ethylsulfonyl-3-pyridyl]cyclopropanecarbonitrile]
≥ 80%: mortality at 200 ppm [1] | percent effect (mortality, anti-feeding or growth inhibition) at 12.5 ppm [2] | mortality at 24 ppm [10] | mortality at 200 ppm [3] | percent effect (mortality or growth inhibition) at 200 ppm [4] | mortality at 200 ppm [5] | percent control (mortality, anti-feedant effect or growth inhibition) at 200 ppm [6] | mortality at 200 ppm [7] | mortality at 200 ppm [11] | percent effect (mortality or growth inhibition) at 200 ppm [8] | percent effect (mortality or growth inhibition) at 200 ppm [9]

CCS(=O)(=O)c1cc(-n2cnc(Cl)n2)cnc1-c1nc2cc(C(F)(F)F)n(C3CC3)c(=O)c2n1C [Compound A34, 2-[5-(3-chloro-1,2,4-triazol-1-yl)-3-ethylsulfonyl-2-pyridyl]-5-cyclopropyl-3-methyl-6-(trifluoromethyl)imidazo[4,5-c]pyridin-4-one]
≥ 80%: mortality at 200 ppm [1] | percent effect (mortality, anti-feeding or growth inhibition) at 12.5 ppm [2] | percent effect (mortality or growth inhibition) at 200 ppm [4] | percent control (mortality, anti-feedant effect or growth inhibition) at 200 ppm [6] | mortality at 200 ppm [7] | percent effect (mortality or growth inhibition) at 200 ppm [8] | percent effect (mortality or growth inhibition) at 200 ppm [9]

Reference: patent US10738045B2, “Pesticidally active heterocyclic derivatives with sulphur and cyclopropyl containing substituents” (SYNGENTA PARTICIPATIONS AG, priority 2015, dated 2020)
